System: 1 A9, 1 A9/PTX10 and 1 A9/PTX22 cells
Assay: Growth inhibition of paclitaxel-sensitive and -resistant 1A9 cells
Assay type: cell-based, human
Procedure: Two compounds, 24 referred to herein as SR-4 and 27 referred to herein as SR-7, were examined in greater detail as to their effects on biological activity. The proliferation of MCF-7, MDA-MB-231 and SV40 transformed mouse embryonic fibroblasts was measured by a previously described colorimetric assay (Wipf P, Jung J-K, Rodriguez S, Lazo JS Synthesis and biological evaluation of Deoxypreussomerin A and Palmarumycin CP 1 and related naphthoquinone spiroketals. Tetrahedron 57:283-296, 2001 and Vogt A, Rice RL, Settineri CE, Yokokawa F, Yokokawa S, Wipf P and Lazo JS (1998) Disruption of insulin-like growth factor-I signaling and down-regulation of Cdc2 by SC-ααδ9, a novel small molecule antisignaling agent identified in a targeted array library. J Pharmacol Exptl Therap 287:806-813.). Briefly, the inventors seeded 4,000-6,000 cells per well in microtiter plates. […] Plates were incubated for 3 hours in the dark and total cell number was determined by spectrophotometrically at 540 nm as previously described (Vogt A, Rice RL, Settineri CE, Yokokawa F, Yokokawa S, Wipf P and Lazo JS (1998) Disruption of insulin-like growth factor-1 signaling and down-regulation of Cdc2 by SC-ααδ9, a novel small molecule antisignaling agent identified in a targeted array library. J Pharmacol Exptl Therap 287:806-813.). […]

O=C1C=CC2(Oc3cccc4cccc(c34)O2)c2cccc(OCc3ccco3)c21 [SR-7, 8-(furan-2-ylmethoxy)-1-oxo-1,4-dihydronaphthalene-4-spiro-2′-naphto [1″,8″-de][1′,3′] dioxin]
inhibition of paclitaxel-sensitive and -resistant cell growth: almost equal inhibition

Reference: patent US6673937B2, “Syntheses and methods of use of new antimitotic agents” (The University of Pittsburgh, priority 2000, dated 2004)
